Laboratory results as given in US20160281050A1, “METHODS FOR TREATING A CULTURE OF HAEMATOCOCCUS PLUVIALIS FOR CONTAMINATION USING SALT AND HYDROGEN PEROXIDE” (HELIAE DEVELOPMENT LLC, priority 2015, published 2016).

Test system: Haematococcus pluvialis (Strain 2)
Experiment: % cell lysis, culture dry weight and % carotenoid by UV method in 230 L reactors, salt treatment (Example 12)
Type: cell-based
Conditions: for Culture Dry Weight in 230L reactors: NaCl 2 ppt (1st 2 ppt column)
Method: This test was done side by side in flasks (0.1 L) and in reactors located in a greenhouse operating in conditions: reactor volume of 230 L; Daily PAR of 20 mol m^−2 d^−1; pH (not measured); and paddlewheel speed of 21 RPM. […] The flask cultures were mixed by shaking at 140 rpm and received 300-400 μmol/m^2 s of photosynthetically active radiation (PAR) in 12 hour light cycles and constant supply of 2.5% CO2. The motility of the culture was monitored by visual observation under a microscope. […] Nine 230 L reactors were also seeded with culture from bioreactor #2410 on the same day as the flasks and brought to 2 ppt concentration of salt. Once motility of the cells was reduced to <10% (day 3 of culture for flasks and day 2 for 230 L reactors) the level of salt was elevated to a point between 4-18 ppt and compared to the culture in two reactors remaining at 2 ppt salt. Flasks and 230 L reactors were monitored for percentage of cell lysis via visual observation under a microscope, culture dry weight (biomass accumulation in g/L), and percentage of chytrid infection via visual observation under a microscope. Carotenoid production, a proxy for determining astaxanthin, was quantified every other day of culture in the 230 L reactors using the UV method.

[Cl-].[Na+] [NaCl, sodium chloride]
% Cell Lysis in 230L reactors (4 ppt, 2 d): 1.67%
% Cell Lysis in 230L reactors (4 ppt, 3 d): 0.00%
% Cell Lysis in 230L reactors (4 ppt, 4 d): 0.00%
% Cell Lysis in 230L reactors (4 ppt, 5 d): 3.33%
% Cell Lysis in 230L reactors (4 ppt, 6 d): 0.00%
% Cell Lysis in 230L reactors (4 ppt, 7 d): 30.00%
% Cell Lysis in 230L reactors (4 ppt, 8 d): 23.33%
% Cell Lysis in 230L reactors (4 ppt, 9 d): 13.33%
% Cell Lysis in 230L reactors (4 ppt, 10 d): 11.67%
% Cell Lysis in 230L reactors (4 ppt, 11 d): 5.00%
% Cell Lysis in 230L reactors (4 ppt, 12 d): 6.67%
% Cell Lysis in 230L reactors (5 ppt, 2 d): 3.18%
% Cell Lysis in 230L reactors (5 ppt, 3 d): 5.00%
% Cell Lysis in 230L reactors (5 ppt, 4 d): 3.33%
% Cell Lysis in 230L reactors (5 ppt, 5 d): 1.67%
% Cell Lysis in 230L reactors (5 ppt, 6 d): 21.67%
% Cell Lysis in 230L reactors (5 ppt, 7 d): 10.00%
% Cell Lysis in 230L reactors (5 ppt, 8 d): 1.67%
% Cell Lysis in 230L reactors (5 ppt, 9 d): 5.00%
% Cell Lysis in 230L reactors (5 ppt, 10 d): 5.00%
% Cell Lysis in 230L reactors (5 ppt, 11 d): 8.33%
% Cell Lysis in 230L reactors (5 ppt, 12 d): 3.33%
% Cell Lysis in 230L reactors (6 ppt, 2 d): 0.00%
% Cell Lysis in 230L reactors (6 ppt, 3 d): 0.00%
% Cell Lysis in 230L reactors (6 ppt, 4 d): 8.33%
% Cell Lysis in 230L reactors (6 ppt, 5 d): 0.00%
% Cell Lysis in 230L reactors (6 ppt, 6 d): 13.33%
% Cell Lysis in 230L reactors (6 ppt, 7 d): 18.33%
% Cell Lysis in 230L reactors (6 ppt, 8 d): 1.67%
% Cell Lysis in 230L reactors (6 ppt, 9 d): 6.67%
% Cell Lysis in 230L reactors (6 ppt, 10 d): 1.67%
% Cell Lysis in 230L reactors (6 ppt, 11 d): 6.67%
% Cell Lysis in 230L reactors (6 ppt, 12 d): 5.00%
% Cell Lysis in 230L reactors (7 ppt, 2 d): 0.00%
% Cell Lysis in 230L reactors (7 ppt, 3 d): 0.00%
% Cell Lysis in 230L reactors (7 ppt, 4 d): 3.33%
% Cell Lysis in 230L reactors (7 ppt, 5 d): 1.67%
% Cell Lysis in 230L reactors (7 ppt, 6 d): 18.33%
% Cell Lysis in 230L reactors (7 ppt, 7 d): 8.33%
% Cell Lysis in 230L reactors (7 ppt, 8 d): 1.67%
% Cell Lysis in 230L reactors (7 ppt, 9 d): 6.67%
% Cell Lysis in 230L reactors (7 ppt, 10 d): 6.67%
% Cell Lysis in 230L reactors (7 ppt, 11 d): 11.67%
% Cell Lysis in 230L reactors (7 ppt, 12 d): 5.00%
% Cell Lysis in 230L reactors (8 ppt, 2 d): 3.18%
% Cell Lysis in 230L reactors (8 ppt, 3 d): 3.33%
% Cell Lysis in 230L reactors (8 ppt, 4 d): 0.00%
% Cell Lysis in 230L reactors (8 ppt, 5 d): 3.33%
% Cell Lysis in 230L reactors (8 ppt, 6 d): 16.67%
% Cell Lysis in 230L reactors (8 ppt, 7 d): 5.00%
% Cell Lysis in 230L reactors (8 ppt, 8 d): 0.00%
% Cell Lysis in 230L reactors (8 ppt, 9 d): 6.67%
% Cell Lysis in 230L reactors (8 ppt, 10 d): 15.00%
% Cell Lysis in 230L reactors (8 ppt, 11 d): 11.67%
% Cell Lysis in 230L reactors (8 ppt, 12 d): 3.33%
% Cell Lysis in 230L reactors (10 ppt, 2 d): 0.00%
% Cell Lysis in 230L reactors (10 ppt, 3 d): 5.00%
% Cell Lysis in 230L reactors (10 ppt, 4 d): 6.67%
% Cell Lysis in 230L reactors (10 ppt, 5 d): 36.67%
% Cell Lysis in 230L reactors (10 ppt, 6 d): 31.67%
% Cell Lysis in 230L reactors (10 ppt, 7 d): 3.33%
% Cell Lysis in 230L reactors (10 ppt, 8 d): 0.00%
% Cell Lysis in 230L reactors (10 ppt, 9 d): 5.00%
% Cell Lysis in 230L reactors (10 ppt, 10 d): 3.33%
% Cell Lysis in 230L reactors (10 ppt, 11 d): 6.67%
% Cell Lysis in 230L reactors (10 ppt, 12 d): 5.00%
% Cell Lysis in 230L reactors (18 ppt, 2 d): 0.00%
% Cell Lysis in 230L reactors (18 ppt, 3 d): 3.33%
% Cell Lysis in 230L reactors (18 ppt, 4 d): 13.33%
% Cell Lysis in 230L reactors (18 ppt, 5 d): 5.00%
% Cell Lysis in 230L reactors (18 ppt, 6 d): 26.67%
% Cell Lysis in 230L reactors (18 ppt, 7 d): 20.00%
% Cell Lysis in 230L reactors (18 ppt, 8 d): 1.67%
% Cell Lysis in 230L reactors (18 ppt, 9 d): 8.33%
% Cell Lysis in 230L reactors (18 ppt, 10 d): 5.00%
% Cell Lysis in 230L reactors (18 ppt, 11 d): 1.67%
% Cell Lysis in 230L reactors (18 ppt, 12 d): 3.33%
cell lysis (230 L reactors, all treatments except 10 ppt): below 30%
Culture Dry Weight in 230L reactors (time 0 d): 0.030 g/L
Culture Dry Weight in 230L reactors (time 1 d): 0.042 g/L
Culture Dry Weight in 230L reactors (time 2 d): 0.065 g/L
Culture Dry Weight in 230L reactors (time 4 d): 0.145 g/L
Culture Dry Weight in 230L reactors (time 5 d): 0.228 g/L
Culture Dry Weight in 230L reactors (time 6 d): 0.173 g/L
Culture Dry Weight in 230L reactors (time 7 d): 0.185 g/L
Culture Dry Weight in 230L reactors (time 8 d): 0.273 g/L
Culture Dry Weight in 230L reactors (time 9 d): 0.145 g/L
Culture Dry Weight in 230L reactors (time 10 d): 0.220 g/L
Culture Dry Weight in 230L reactors (time 11 d): 0.145 g/L
